Experimental findings from US20120184542A1, “PYRIDO PYRIMIDINES” (priority 2011, published 2012) are described below.

Structures can show the parent of a compound that is named as a salt.

The target of the experiment is T1, Human DYRK1B (Homo sapiens, UniProt Q9Y463).
T1 construct: purchased Invitrogen PR8350B (former PV4649)
Briefly: DYRK1B Kinase TR-FRET (IMAP-Tb) Assay. It counts as biochemical. The settings on record: Enzyme IC50 (μM) DYRK1B, TR-FRET (IMAP-Tb); ATP 70 μM; 37° C. 60 minutes.

T1 sequence (Q9Y463 whole entry): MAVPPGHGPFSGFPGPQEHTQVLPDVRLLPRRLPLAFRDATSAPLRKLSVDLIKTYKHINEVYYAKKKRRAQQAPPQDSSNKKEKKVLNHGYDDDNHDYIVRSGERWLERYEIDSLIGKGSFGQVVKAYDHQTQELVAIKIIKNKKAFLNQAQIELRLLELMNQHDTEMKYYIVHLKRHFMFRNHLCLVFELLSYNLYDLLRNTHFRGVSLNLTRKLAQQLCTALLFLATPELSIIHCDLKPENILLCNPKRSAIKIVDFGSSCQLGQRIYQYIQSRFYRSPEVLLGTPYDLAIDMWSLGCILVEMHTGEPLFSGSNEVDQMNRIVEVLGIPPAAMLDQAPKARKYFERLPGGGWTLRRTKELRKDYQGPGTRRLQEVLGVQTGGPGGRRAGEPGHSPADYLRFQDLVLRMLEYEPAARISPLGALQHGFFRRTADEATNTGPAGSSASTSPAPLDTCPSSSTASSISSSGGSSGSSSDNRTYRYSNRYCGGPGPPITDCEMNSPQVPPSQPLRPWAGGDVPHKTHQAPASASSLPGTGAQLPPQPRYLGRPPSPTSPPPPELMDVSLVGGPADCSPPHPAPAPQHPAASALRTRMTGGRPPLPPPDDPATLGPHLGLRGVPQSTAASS

What is called IC50 is the concentration at which inhibition is half-maximal. Low readings indicate greater potency, high ones weaker potency. `COc1ncc2cc(C(=O)Nc3cc(C(=O)NC(CCCN)c4ccccc4)ccc3Cl)c(=O)[nH]c2n1` (centres unmarked) [Example 189, N-(5-(4-Amino-1-phenylbutylcarbamoyl)-2-chlorophenyl)-2-methoxy-7-oxo-7,8-dihydropyrido[2,3-d]pyrimidine-6-carboxamide] yielded an IC50 of 0.0214 µM.

In turn, `COc1ncc2cc(C(=O)Nc3cc(C(=O)NC(CCCCN)c4ccccc4)ccc3Cl)c(=O)[nH]c2n1` (centres unmarked) [Example 186, N-(5-(5-Amino-1-phenylpentylcarbamoyl)-2-chlorophenyl)-2-methoxy-7-oxo-7,8-dihydropyrido[2,3-d]pyrimidine-6-carboxamide] displayed an IC50 of 1.01 µM. This IC50 lies about 47-fold higher than the previous one.

`COc1nc(C)c2cc(C(=O)Nc3cc(C(=O)NC(CCN)c4ccccc4)ccc3Cl)c(=O)[nH]c2n1` (centres unmarked) [Example 169, N-(5-(3-Amino-1-phenylpropylcarbamoyl)-2-chlorophenyl)-2-methoxy-4-methyl-7-oxo-7,8-dihydropyrido[2,3-d]pyrimidine-6-carboxamide2,2,2-trifluoroacetate] displayed an IC50 of 0.101 µM. This IC50 lies about 10-fold lower than the previous one. The same measure for `CN1CCN(CCCNc2ncc3cc(C(=O)Nc4cc(C(=O)NC(CCN)c5ccccc5)ccc4Cl)c(=O)[nH]c3n2)CC1` (centres unmarked) [Example 120, N-(5-(3-Amino-1-phenylpropylcarbamoyl)-2-chlorophenyl)-2-(3-(4-methylpiperazin-1-yl)propylamino)-7-oxo-7,8-dihydropyrido[2,3-d]pyrimidine-6-carboxamide]: under 0.0046 µM. Regarding `COc1ncc2cc(C(=O)Nc3cc(C(=O)N[C@@H](CCN)c4cccc(Cl)c4)ccc3Cl)c(=O)[nH]c2n1` [Example 136, 2-Methoxy-7-oxo-7,8-dihydro-pyrido[2,3-d]pyrimidine-6-carboxylic acid {5-[(S)-3-amino-1-(3-chloro-phenyl)-propylcarbamoyl]-2-chloro-phenyl}-amide], the IC50 came to 2.55 µM. Regarding `COc1ncc2cc(C(=O)Nc3cc(C(=O)Nc4ccccc4)ccc3Cl)c(=O)[nH]c2n1` [Example 49, 2-Methoxy-7-oxo-7,8-dihydro-pyrido[2,3-d]pyrimidine-6-carboxylic acid (2-chloro-5-phenylcarbamoyl-phenyl)-amide], the IC50 worked out at 2.97 µM. The IC50 values of the last two molecules are within 1.5-fold of each other.

`COc1ncc2cc(C(=O)Nc3cc(C(=O)NC(CCN)C4CCCCC4)ccc3Cl)c(=O)[nH]c2n1` (centres unmarked) [Example 193, N-(5-(3-Amino-1-cyclohexylpropylcarbamoyl)-2-chlorophenyl)-2-methoxy-7-oxo-7,8-dihydropyrido[2,3-d]pyrimidine-6-carboxamide 2,2,2-trifluoroacetate] displayed an IC50 of 0.615 µM. This IC50 is about 4.8-fold lower than that of the molecule before. In the case of `Cc1ncc2cc(C(=O)Nc3cc(C(=O)N[C@H](CCN)c4ccccc4)ccc3Cl)c(=O)[nH]c2n1` [Example 168, (R)—N-(5-(3-Amino-1-phenylpropylcarbamoyl)-2-chlorophenyl)-2-methyl-7-oxo-7,8-dihydropyrido[2,3-d]pyrimidine-6-carboxamide hydrochloride] it was under 0.0046 µM. In the case of `COc1ncc2cc(C(=O)Nc3cc(C(=O)NCCc4cccc(Cl)c4)ccc3Cl)c(=O)[nH]c2n1` [Example 71, 2-Methoxy-7-oxo-7,8-dihydro-pyrido[2,3-d]pyrimidine-6-carboxylic acid {2-chloro-5-[2-(3-chloro-phenyl)-ethylcarbamoyl]-phenyl}-amide] it was 0.135 µM; in that of `COc1ncc2cc(C(=O)Nc3cc(C(=O)N(C)Cc4cccc(Cl)c4)ccc3Cl)c(=O)[nH]c2n1` [Example 65, 2-Methoxy-7-oxo-7,8-dihydro-pyrido[2,3-d]pyrimidine-6-carboxylic acid {2-chloro-5-[(3-chloro-benzyl)-methyl-carbamoyl]-phenyl}-amide], 0.586 µM.

`Cc1ncc2cc(C(=O)Nc3cc(C(=O)NC(CCN)c4ccccc4)ccc3Cl)c(=O)[nH]c2n1` (centres unmarked) [Example 112, N-(5-(3-Amino-1-phenylpropylcarbamoyl)-2-chlorophenyl)-2-methyl-7-oxo-7,8-dihydropyrido[2,3-d]pyrimidine-6-carboxamide hydrochloride] gave an IC50 of 0.018 µM.
